{"source": "ChEMBL document CHEMBL4184281", "about": "“Pharmacology and in vivo efficacy of pyridine-pyrimidine amides that inhibit microtubule polymerization” (Bioorg Med Chem Lett, 2018)", "key": {"[1]": {"assay": "Efflux ratio of apparent intrinsic permeability in human Caco2 cells after 120 mins by mass spectrometry", "format": "ADME, cell-based", "settings": "Caco-2"}, "[2]": {"assay": "in vitro", "settings": "human, Caco-2", "description": "Apparent intrinsic permeability in human Caco2 cells from apical to basolateral side after 120 mins by mass spectrometry"}, "[3]": {"assay": "in vitro", "settings": "human, Caco-2", "remark": "listed apart in the source", "description": "Apparent intrinsic permeability in human Caco2 cells from basolateral to apical side after 120 mins by mass spectrometry"}, "[4]": {"assay": "Toxicity in mouse", "format": "organism-based", "settings": "in vivo"}, "[5]": {"system": "SNU-16", "assay": "Antitumor activity against human SNU16 cells xenografted in nude BALB/c mouse assessed as tumor growth inhibition relative to control", "format": "functional"}, "[6]": {"assay": "Tmax in CD-1 mouse administered as single po dose by mass spectrometry", "format": "ADME, organism-based", "settings": "in vivo"}, "[7]": {"assay": "Drug recovery in plasma (unknown origin)", "format": "ADME, cell-free"}, "[8]": {"assay": "Stability in human plasma assessed as parent compound remaining after 75 mins relative to initial time", "format": "ADME, cell-free", "settings": "read-out: Stability"}, "[9]": {"assay": "Stability in human plasma assessed as parent compound remaining after 2 hrs relative to initial time", "format": "ADME, cell-free", "settings": "read-out: Stability"}, "[10]": {"assay": "Stability in human plasma assessed as parent compound remaining after 4 hrs relative to initial time", "format": "ADME, cell-free", "settings": "read-out: Stability"}}, "data": [{"smiles": "COC(=O)c1ccccc1-c1c2ccc(=N)cc-2oc2cc(N)ccc12.Cl", "note": "[RHODAMINE123]", "values": [{"measurement": "efflux ratio at 2 h", "setting": "[1]", "result": 11.7}, {"measurement": "Papp A→B at 2 h", "setting": "[2]", "result": 0.61, "unit": "×10⁻⁶ cm/s"}, {"measurement": "Papp B→A at 2 h", "setting": "[3]", "result": 7.17, "unit": "×10⁻⁶ cm/s"}]}, {"smiles": "CC(C)NCC(O)COc1cccc2ccccc12", "note": "(stereo not drawn) [PROPRANOLOL]", "values": [{"measurement": "efflux ratio at 2 h", "setting": "[1]", "result": 0.99}, {"measurement": "Papp A→B at 2 h", "setting": "[2]", "result": 21.2, "unit": "×10⁻⁶ cm/s"}, {"measurement": "Papp B→A at 2 h", "setting": "[3]", "result": 21.1, "unit": "×10⁻⁶ cm/s"}]}, {"smiles": "O=C(Nc1ccc(-c2cccc(Cl)c2)cn1)c1cncnc1", "values": [{"measurement": "MTD", "setting": "[4]", "result": "≤ 6", "unit": "mg/kg"}, {"measurement": "TGI", "setting": "[5]", "result": 66, "unit": "%"}]}, {"smiles": "Cc1ccc(C(=O)Nc2ccc(-c3cccc(C4COC4)c3)cn2)cn1", "values": [{"measurement": "MTD", "setting": "[4]", "result": "≤ 6", "unit": "mg/kg"}, {"measurement": "TGI", "setting": "[5]", "result": 69, "unit": "%"}, {"measurement": "Tmax", "setting": "[6]", "result": "≤ 15", "unit": "min"}]}, {"smiles": "Cc1ncc(C(=O)Nc2ccc(-c3cccc(NC4CC4)c3)cn2)cn1", "values": [{"measurement": "MTD", "setting": "[4]", "result": "≤ 6", "unit": "mg/kg"}, {"measurement": "TGI", "setting": "[5]", "result": 67, "unit": "%"}, {"measurement": "Tmax", "setting": "[6]", "result": "≤ 15", "unit": "min"}]}, {"smiles": "CC(=O)CC(c1ccccc1)c1c(O)c2ccccc2oc1=O", "note": "(stereo not drawn) [WARFARIN]", "values": [{"measurement": "Drug recovery", "setting": "[7]", "result": 98.63, "unit": "%"}]}, {"smiles": "CC(C)[N+](C)(CCOC(=O)C1c2ccccc2Oc2ccccc21)C(C)C", "note": "[PROPANTHELINE]", "values": [{"measurement": "remaining at 1.25 h", "setting": "[8]", "result": 13.9, "unit": "%"}, {"measurement": "remaining at 2 h", "setting": "[9]", "result": 5.16, "unit": "%"}, {"measurement": "remaining at 4 h", "setting": "[10]", "result": 0.34, "unit": "%"}]}]}
